{
  "source": "patent US20220281930A1",
  "about": "“COMPOSITIONS AND METHODS FOR THE TREATMENT OF PATHOLOGICAL PAIN AND ITCH” (DUKE UNIVERSITY, priority 2019, published 2022)",
  "key": {"KCC2": {"system": "KCC2", "assay": "Immuno-cytochemistry morphometry of primary human cortical neurons, KCC2", "format": "cell-based", "conditions": "400 nM KP", "procedure": "The neuron-enriched cultures were established from fetal cortical specimens at 15-20 weeks of gestation. The protocols for tissue processing complied with all federal and institutional guidelines. The cultures were plated on PEI (polyethyleneimine solution) substrate and maintained in Neurobasal media supplemented with B27 as previously described (Pelsman et al., 2003, International journal of developmental neuroscience 21:117-124; Yeo et al., 2013, Proc Natl Acad Sci USA 110:4315-4320).\nFor immunostaining, the cultures were treated for 2-4 days with vehicle or 400 nM KP, fixed with 4% PFA at day 10, and processed for double-staining with anti-KCC2 and anti-synaptophysin or anti-NeuN (see Table 1).\nThe 0.34 micrometer confocal slices through entire cell layers at different optical fields (n=17-28 for each group) of the fixated cultures were acquired using a Zeiss LSM700 confocal microscope.\nImage Z-stacks were analyzed using Imaris 9.2.1 software. Optical density intensity sum values for each stack/channel were divided by corresponding data volumes and the resulting values were normalized to the number of specifically labeled cells within each stack. There were no significant differences in the number of cells between vehicle and KP-treated groups."}, "brain reward mechanisms": {"system": "brain reward mechanisms", "assay": "Conditioned place preference (CPP)", "format": "in vivo, mouse", "conditions": "30 mg/kg i.p.; KP vs vehicle", "procedure": "Conditioned place preference (CPP) was conducted using a CPP box, which consists of two conditioning chambers distinguished by visual and sensory cues, along with a small buffering chamber. All mice received a 3-day preconditioning habituation period with free access to both conditioning chambers and the time spent in each chamber was recorded for 15 min on day 3 after habituation. On conditioning days (day 4-10), mice first received the vehicle control (i.p. 5% DMSO, 5% Tween-80 in normal saline) paired with a randomly chosen chamber in the morning. After 4 hours, mice received KP (i.p. 30 mg/kg) or vehicle, paired with the other chamber. During the conditioning, mice were allowed to stay only in the paired chamber for 15 min without access to other chambers. On test day (d11), mice were placed in the buffering chamber with free access to both conditioning chambers and choice behavior was recorded for 15 min. The CPP scores were calculated as post-conditioning time minus preconditioning time spent in the paired chamber.\nWith these beneficial effects of KP on pathologic pain and itch, whether KP had undesirable effects on the CNS in terms of sedation, impairment of motor stamina, balance and coordination was assessed. […]"}, "[1]": {"system": "DNFB chronic contact dermatitis model", "assay": "DNFB chronic contact dermatitis scratching behavior", "format": "in vivo, mouse", "conditions": "daily i.p. 30 mg/kg", "procedure": "To assess scratching behavior as a behavioral correlate of itch, mice were shaved at the dorsal neck where topical application of 0.5% DNFB was applied (day 1). […] On day 12, mice were allowed to acclimate to a Plexiglas chamber for at least 30 mins before performing itch behavior test. Scratching behavior was recorded by a Panasonic video camera for a 30-min observation period. Hind limb scratching behavior directed toward the shaved area at the nape of neck was observed. One scratch is defined as a lifting of the hind limb toward the injection site and then a replacing of the limb back to the floor, regardless of how many scratching strokes take place between those two movements. Behavioral analysis was conducted by observers blinded to treatment procedure. DNFB-induced scratching behavior was recorded on day 12 for 1 h. […] Based on these findings, KP's anti-pruritic effects were assessed because inhibitory transmission in the SCDH plays an important role in chronic pruritus (Akiyama et al., 2015, Pain 156:1240-1246.; Bourane et al., 2015, Science 350:550-554; Braz et al., 2017, Prog Brain Res 231:87-105; Braz et al., 2014, J Clin Invest 124:3612-3616; Koch et al., 2018, Annual review of physiology 80:189-217; Mishra and Hoon, 2015, Handbook of experimental pharmacology 226:151-162)."}, "neuronal [Cl—]i": {"system": "neuronal [Cl—]i", "assay": "Clomeleon chloride imaging in rat primary cortical neurons", "format": "cell-based", "procedure": "Chloride imaging of primary cultured cortical neurons was conducted as previously described (Kuner and Augustine, 2000, Neuron 27:447-459; Liedtke et al., 2013, Small 9:1066-1075; Yeo et al., 2009, J Neurosci 29:14652-14662). A Clomeleon expression plasmid was transfected into primary cortical neurons by electroporation (Amaxa Nucleofector Device). Transfected neurons were verified by yellow fluorescent protein (YFP) fluorescence, and ratiometric images (excitation at λ=434 nm, dual emission at λ=485 and 535 nm; for resting chloride, six stable frames at […] were captured, which were averaged) were acquired using RATIOTOOL program. Calibration of Clomeleon signals (535 nm/485 nm emission ratio) was performed by using tributyltin-nigericin to establish a standard curve, which was then normalized for measured intraneuronal pH to take into account the pH sensitivity of Clomeleon."}},
  "data": [
    {"smiles": "O=C1Cc2c([nH]c3ccc(Br)cc23)-c2ccccc2N1", "note": "[kenpaullone, 9-bromo-7,12-dihydro-indolo [3,2-d] [1]benzazepin-6(5H)-one]", "values": [
      {"measurement": "increased KCC2 expression relative to vehicle", "setting": "KCC2", "value": 62, "unit": "%"},
      {"measurement": "CPP scores", "setting": "brain reward mechanisms", "value": "No significant difference in CPP scores"},
      {"measurement": "scratching behavior of sensitized sites", "setting": "[1]", "value": "significantly reduced robust scratching behavior"},
      {"measurement": "KCC2 chloride transporter mediated chloride efflux", "setting": "neuronal [Cl—]i; KP vs vehicle at 10 min and 20 min time-points", "value": "does not enhance"},
      {"measurement": "neuronal [Cl—]i", "setting": "neuronal [Cl—]i; clomeleon, after KP treatment vs vehicle", "value": "robustly and significantly reduced"},
      {"measurement": "time to enhanced KCC2 gene expression and KCC2 chloride extrusion function", "setting": "neuronal [Cl—]i; rat neurons, FIG. 2D", "value": "≤ 3", "unit": "h"}
    ]}
  ]
}
